Where “and” joins values, the source holds several entries; their conditions need not be identical. Identical values can stand only once. Non-standard residues stand in square brackets, D forms with d. Residues, ends and D or L forms follow the SMILES beside them. No end group written: not given here. Dmt = Cc1cc(O)cc(C)c1C[C@H](N)C(=O)O
What was measured:
[1] = tested on: subjects suspected of having or diagnosed as having TON; experiment: Treatment of subjects with TON, Example 1 (predicted); type: in vivo; conditions: for effect in combination with one or more additional therapeutic agents: compared with peptide or additional agent alone, expected; for severity of symptoms associated with TON: daily 1 mg/kg body weight, predicted
Protocol: Subjects suspected of having or diagnosed as having TON receive daily administrations of 1 mg/kg body weight of aromatic-cationic peptide, such as 2′6′-Dmt-D-Arg-Phe-Lys-NH2, Phe-D-Arg-Phe-Lys-NH2, or D-Arg-2′6′-Dmt-Lys-Phe-NH2, or a pharmaceutically acceptable salt thereof (such as an mono, bis, or tri-acetate salt, a tartrate salt, a fumarate salt, a mono, bis, or tri-HCl salt, a mono, bis, or tri-tosylate salt, or a mono, bis, or tri-trifluoroacetate salt) alone or in combination with one or more additional therapeutic agents for the treatment or prevention of TON. Peptides and/or additional therapeutic agents are administered orally, topically, systemically, intravenously, subcutaneously, intravitreally, intraperitoneally, or intramuscularly according to methods known in the art. Subjects will be evaluated weekly for the presence and/or severity of signs and symptoms associated with TON including, but not limited to, e.g., vision loss, blurred vision, RGC damage, scotoma, decreased color sensation, uveitis, optic neuritis, eye pain, optic nerve avulsion, optic nerve transection, optic nerve sheath hemorrhage, orbital hemorrhage, choroidal rupture, and commotio retinae. Treatments are maintained until such a time as one or more signs or symptoms of TON are ameliorated or eliminated.

[2] = tested on: retinal ganglion cells (RGC); experiment: RGC survival in optic nerve crush-induced TON (ONC-TON) model, Example 2; type: in vivo, rat; conditions: two weeks following injury, early use, peptide 2 mg/kg SQ for 7 days
Source text: ONC-TON is induced by exposing the optic nerve of an adult rat and creating a small opening in the meninges of the nerve, as described in Solomon, A. et al., J. of Neurosci. Methods (1996) 70: 21-25, (incorporated herein by reference). The opening is created about 2-3 mm behind the eye globe. A glass dissector is introduced through the opening and is used to cut all the axons through the whole width of the nerve. Complete […] of the optic nerve axons is achieved, while retaining the continuity of the meninges and avoiding damage to the nerve's vascular supply. Transection can be confirmed by transillumination showing a complete gap in the continuity of the nerve axons, and by both morphological and electrophysiological criteria. The opening created in the ‘meningeal tube’ can be used to inject substances that may be of benefit in recovery, rescue and/or regeneration of the injured axons. […]
(§1) A baseline recording of visual function by pattern electroretinogram (PERG) and imaging of the optic disc was performed prior to inducing SI-TON or ONC-TON. […] Euthanized animals were evaluated for RGC dropout by flat mount. […]
To test if a combinatorial strategy results in improved visual outcomes, a therapeutic agent, such as a TNF-alpha inhibitor (e.g., etanercept), D-Arg-2′6′-Dmt-Lys-Phe-NH2, or a combination of these pharmaceutical agents was assessed. […]

[3] = tested on: retinal ganglion cells (RGC); experiment: RGC survival in sonication-induced TON (SI-TON) model, Example 2; type: in vivo, mice; conditions: two weeks following injury, early use, peptide 2 mg/kg SQ for 7 days
Source text: SI-TON is induced by a microtip probe sonifier placed on the supraorbital ridge directly above the entrance of the optic nerve into the bony canal, as described in Tao, W. et al., Scientific Reports (2017) 7: 11779 (incorporated herein by reference). An ultrasonic pulse is then delivered to the optic nerve. After injury, the number of RGCs in the retina as well as visual function measured by PERG steadily decrease over a two-week period. […] The SI-TON model is capable of delivering a non-contact concussive injury to the optic nerve and induce TON in mice.
Two models for TON were utilized in this example: a novel sonication-induced TON (SI-TON) that closely recapitulates the clinical manifestations of indirect TON, and optic nerve crush-induced TON (ONC-TON) which reflects a more severe form of TON often resulting in axotomized nerve fibers and ruptured nervous vasculature. […]
as §1
To test if a combinatorial strategy results in improved visual outcomes, a therapeutic agent, such as a TNF-alpha inhibitor (e.g., etanercept), D-Arg-2′6′-Dmt-Lys-Phe-NH2, or a combination of these pharmaceutical agents was assessed. […] Euthanized animals were evaluated for RGC dropout by flat mount. […]

[4] = tested on: several mammalian cell types; conditions: energy-independent manner; cited from earlier work
[5] = tested on: Retinal Nerve Fiber Layer (RNFL) and Inner Plexiform Layer (IPL); experiment: Sequential administration study, OCT thickness of RNFL and IPL after US-TON (SI-TON), Example 4; type: in vivo, mice; conditions: four weeks after treatments
Protocol: (§2) The sequential administration study was conducted as depicted in FIG. 4. A baseline visual function of retinal ganglion cells (RGCs) was obtained using pattern electroretinography (PERG) to record the electrical activity of RGCs, Optical Coherence Tomography (OCT) to evaluate the thickness of the Retinal Nerve Fiber Layer (RNFL), and Heidelberg Retina Topography (HRT) to evaluate subtle changes in the optic nerve caused by trauma. At day zero, US-TON (SI-TON) was induced by a microtip probe sonifier placed on the supraorbital ridge directly above the entrance of the optic nerve into the bony canal, as described in Example 2.
(§3) On the first day, six mice were administered either a bolus subcutaneous injection of 3 mg/kg ([…]) Etanercept (Enbrel™, Groups 1 and 2), 10 mg/kg (300 μg per 30 g mouse) D-Arg-2′6′-Dmt-Lys-Phe-NH2(MTP-131, Groups 3 and 4), or PBS (Groups 5 and 6), followed by daily injections of the drug formulation for a period of 3 days. On the sixth day, Groups 1 and 2 were administered a bolus subcutaneous injection of 10 mg/kg (300 μg per 30 g mouse) D-Arg-2′6′-Dmt-Lys-Phe-NH2; Groups 3 and 4 were administered a bolus subcutaneous injection of 3 mg/kg ([…]) Etanercept; and Groups 5 and 6 received PBS, followed by daily injections of the drug formulation for three days. […]

[6] = tested on: retinal ganglion cells (RGCs); experiment: Sequential administration study, PERG after US-TON (SI-TON), Example 4; type: in vivo, mice; conditions: 5 mg/kg 4-AP added to any formulation from two weeks post-injury, two and four weeks post treatment
Protocol: as §2, §3

[7] = tested on: retinal ganglion cells (RGCs); experiment: Safety and efficacy of acute intravitreal administration, PERG before and after SI-TON, Example 5; type: in vivo, C57BL/6 J mice
Protocol: To determine the safety of acute intravitreal administration of aromatic-cationic peptides in vivo, SI-TON was induced in 3-month-old C57BL/6 J mice with a Branson Digital Sonifier 450 (Branson) by a 3 mm microtip probe (Branson) in an acoustic soundproof enclosure chamber, as described in Example 2. Fifteen minutes following the induction of TON, a group of ten mice were administered 1.3 μL of 100 nM D-Arg-2′6′-Dmt-Lys-Phe-NH2 (MTP-131) intravitreally in the left eye (OS, treated). A different subset of mice was administered control PBS solution intravitreally in the left eye (OS, treated) followed by subcutaneous injection with 5 mg/kg D-Arg-2′6′-Dmt-Lys-Phe-NH2 fifteen minutes post-injury. A baseline recording of the mice visual function was recorded using electrophysiological recording of RGCs through PERG prior to SI-TON induction and the functional visual outcome of the mice was tested again 4 weeks post-injury.

## F[dR]FK-NH2
[1]
  effect in combination with one or more additional therapeutic agents: synergistic effects
  severity of symptoms associated with TON: reduced severity or elimination of one or more symptoms associated with TON

## etanercept
[2]
  percent RGC survival: 48.94% and 48.94±1.94%
[3]
  percent RGC survival: 97.08% and 97.08±2.21%

## 2′6′-Dmt-D-Arg-Phe-Lys-NH2
[4]
  penetration of the plasma membrane: readily penetrates the plasma membrane
[1]
  effect in combination with one or more additional therapeutic agents: synergistic effects
  severity of symptoms associated with TON: reduced severity or elimination of one or more symptoms associated with TON

## Nc1ccncc1 [4-AP, 4-aminopyridine]
[5]
  RNFL and IPL thickness by OCT: did not significantly improve
[6]
  RGC electrical activity measured by PERG: significantly increased RGC electrical activity

## Cc1cc(O)cc(C)c1C[C@H](NC(=O)[C@H](N)CCCNC(=N)N)C(=O)N[C@@H](CCCCN)C(=O)N[C@@H](Cc1ccccc1)C(N)=O [D-Arg-2′6′-Dmt-Lys-Phe-NH2] (H-[dR][Dmt]KF-NH2)
[7]; acute intravitreal injection, 1.3 μL of 100 nM
  safety of direct application to the eye: did not show evidence of toxicity
[7]; uninjured baseline, left eye
  baseline electrophysiological recording of RGCs (PERG), treated vs control: substantially similar
